Laboratory results published in patent publication US11180521B2, “Nicotinamide riboside analogs, pharmaceutical compositions, and uses thereof” (Metro International Biotech, LLC, priority 2018, dated 2021).

What was measured:
[1] = PK/PD duration of effect study, single oral gavage dose: administered compound level in liver; assay type: in vivo, C57BL/6 mice; set-up: key to transcyclohexyl NaR dimer concentration: BQL: Below quantitation limit; BDL: Below Detection Limit, No Peak Detected
Description: (§1) Transcyclohexyl nicotinic acid riboside (NaR) dimer was administered by oral gavage at a dose of 500 mg/kg in an Ethanol/PBS, pH 7.4/PEG400 (10/30/60) vehicle. The dosing volume was 5 ml/kg at a solution concentration of 100 mg/ml. The solution concentration was increased for the presence of counterion.
(§2) Animals were fasted for 16 hours prior to dosing. Samples were collected pre-dose and at 0.25, 0.75, 1, 2, 4, 8 and 24 hr post dosing. Following euthanasia, the entire liver and skeletal muscle (gastrocnemius with attached soleus muscle, bilateral) were rinsed with 0.9% saline, and frozen for later bioanalysis. Samples were maintained frozen at −80° C. until bioanalysis.
(§3) Samples were thawed, homogenized, extracted and analyzed by LC-MS on the same day. The LC used was a Shimadzu Nexera UPLC, and the mass spectrometer was an AB Sciex Qtrap 6500. Specimens were analyzed for levels of administered compound (transcyclohexyl NaR dimer), as well as for levels of NAD, NAAD, NAM, and NMN by the method of standard addition, to detect alterations from the basal levels of the analytes. Calibration standards for quantifying administered compound were prepared using transcyclohexyl NaR dimer in mouse liver or skeletal muscle homogenates. Corresponding standards for quantifying other metabolites were also prepared. Data are calculated as the mean concentration from n=6 animals per time point.

[2] = test system: NAD, NAAD, NAM, and NMN levels in liver; test: PK/PD duration of effect study, single oral gavage dose: NAD, NAAD, NAM and NMN levels in liver; assay type: in vivo, C57BL/6 mice; set-up: key to NAAD concentration: BQL: Below quantitation limit; BDL: Below Detection Limit, No Peak Detected; settings: for NAAD concentration: pre-dose BDL
Description: as §1, §2, §3

- transcyclohexyl NaR dimer concentration ([1]; 0.75 hr after 500 mg/kg oral gavage, pre-dose BQL): 0.000387 mmol/kg
- transcyclohexyl NaR dimer concentration ([1]; 1 hr after 500 mg/kg oral gavage, pre-dose BQL): 0.000275 mmol/kg
- transcyclohexyl NaR dimer concentration ([1]; 2 hr after 500 mg/kg oral gavage, pre-dose BQL): 0.0000706 mmol/kg
- transcyclohexyl NaR dimer concentration ([1]; 4 hr after 500 mg/kg oral gavage, pre-dose BQL): BQL
- transcyclohexyl NaR dimer concentration ([1]; 8 hr after 500 mg/kg oral gavage, pre-dose BQL): BQL
- transcyclohexyl NaR dimer concentration ([1]; 24 hr after 500 mg/kg oral gavage, pre-dose BQL): BQL
- Cmax ([1]; C57BL/6, mouse, 500 mg/kg oral gavage, read-out: Cmax of transcyclohexyl NaR dimer): 10600 ng/g
- Tmax ([1]; C57BL/6, mouse, 500 mg/kg oral gavage, read-out: tmax of transcyclohexyl NaR dimer): 15 min
- half-life ([1]; C57BL/6, mouse, 500 mg/kg oral gavage, regression points 0.75, 1, 2 h, read-out: t½ of transcyclohexyl NaR dimer (converted)): 30.5 min
- concentration at 0.25 h ([1]; C57BL/6, mouse, 0.25 hr after 500 mg/kg oral gavage, pre-dose BQL, read-out: transcyclohexyl NaR dimer concentration): 10600 ng/g
- concentration at 0.75 h ([1]; C57BL/6, mouse, 0.75 hr after 500 mg/kg oral gavage, pre-dose BQL, read-out: transcyclohexyl NaR dimer concentration): 327 ng/g
- concentration at 1 h ([1]; C57BL/6, mouse, 1 hr after 500 mg/kg oral gavage, pre-dose BQL, read-out: transcyclohexyl NaR dimer concentration): 232 ng/g
- concentration at 2 h ([1]; C57BL/6, mouse, 2 hr after 500 mg/kg oral gavage, pre-dose BQL, read-out: transcyclohexyl NaR dimer concentration): 60 ng/g
Structure (SMILES): CC(=O)OC[C@H]1O[C@@H]([n+]2cccc(C(=O)O[C@H]3CC[C@H](OC(=O)c4ccc[n+]([C@@H]5O[C@H](COC(C)=O)[C@@H](OC(C)=O)[C@H]5OC(C)=O)c4)CC3)c2)[C@H](OC(C)=O)[C@@H]1OC(C)=O [transcyclohexyl NaR dimer, Transcyclohexyl nicotinic acid riboside (NaR) dimer]
- NMN concentration ([2]; 0.25 hr after 500 mg/kg oral gavage, pre-dose 0.00637): 0.00556 mmol/kg
- NAM concentration ([2]; 0.25 hr after 500 mg/kg oral gavage, pre-dose 0.430): 0.481 mmol/kg
- NAD concentration ([2]; 0.25 hr after 500 mg/kg oral gavage, pre-dose 1.08): 0.938 mmol/kg
- NMN concentration ([2]; 0.25 hr after 500 mg/kg oral gavage, pre-dose 2.13): 1.86 µg/g
- NAM concentration ([2]; 0.25 hr after 500 mg/kg oral gavage, pre-dose 52.5): 58.7 µg/g
- NAD concentration ([2]; 0.25 hr after 500 mg/kg oral gavage, pre-dose 713): 623 µg/g
- NAAD concentration ([2]; 0.25 hr after 500 mg/kg oral gavage): BDL
- NMN concentration ([2]; 0.75 hr after 500 mg/kg oral gavage, pre-dose 0.00637): 0.00977 mmol/kg
- NAM concentration ([2]; 0.75 hr after 500 mg/kg oral gavage, pre-dose 0.430): 1.69 mmol/kg
- NAD concentration ([2]; 0.75 hr after 500 mg/kg oral gavage, pre-dose 1.08): 0.493 mmol/kg
- NMN concentration ([2]; 0.75 hr after 500 mg/kg oral gavage, pre-dose 2.13): 3.26 µg/g
- NAM concentration ([2]; 0.75 hr after 500 mg/kg oral gavage, pre-dose 52.5): 206 µg/g
- NAD concentration ([2]; 0.75 hr after 500 mg/kg oral gavage, pre-dose 713): 327 µg/g
- NAAD concentration ([2]; 0.75 hr after 500 mg/kg oral gavage): BDL
- NMN concentration ([2]; 1 hr after 500 mg/kg oral gavage, pre-dose 0.00637): 0.00945 mmol/kg
- NAM concentration ([2]; 1 hr after 500 mg/kg oral gavage, pre-dose 0.430): 1.48 mmol/kg
- NAD concentration ([2]; 1 hr after 500 mg/kg oral gavage, pre-dose 1.08): 0.575 mmol/kg
- NMN concentration ([2]; 1 hr after 500 mg/kg oral gavage, pre-dose 2.13): 3.16 µg/g
- NAM concentration ([2]; 1 hr after 500 mg/kg oral gavage, pre-dose 52.5): 181 µg/g
- NAD concentration ([2]; 1 hr after 500 mg/kg oral gavage, pre-dose 713): 381 µg/g
- NAAD concentration ([2]; 1 hr after 500 mg/kg oral gavage): BDL
- NMN concentration ([2]; 2 hr after 500 mg/kg oral gavage, pre-dose 0.00637): 0.00706 mmol/kg
- NAM concentration ([2]; 2 hr after 500 mg/kg oral gavage, pre-dose 0.430): 0.660 mmol/kg
- NAD concentration ([2]; 2 hr after 500 mg/kg oral gavage, pre-dose 1.08): 1.19 mmol/kg
- NMN concentration ([2]; 2 hr after 500 mg/kg oral gavage, pre-dose 2.13): 2.36 µg/g
- NAM concentration ([2]; 2 hr after 500 mg/kg oral gavage, pre-dose 52.5): 80.6 µg/g
- NAD concentration ([2]; 2 hr after 500 mg/kg oral gavage, pre-dose 713): 787 µg/g
- NMN concentration ([2]; 4 hr after 500 mg/kg oral gavage, pre-dose 0.00637): 0.0146 mmol/kg
- NAM concentration ([2]; 4 hr after 500 mg/kg oral gavage, pre-dose 0.430): 0.791 mmol/kg
- NAD concentration ([2]; 4 hr after 500 mg/kg oral gavage, pre-dose 1.08): 2.23 mmol/kg
- NMN concentration ([2]; 4 hr after 500 mg/kg oral gavage, pre-dose 2.13): 4.87 µg/g
- NAM concentration ([2]; 4 hr after 500 mg/kg oral gavage, pre-dose 52.5): 96.5 µg/g
- NAD concentration ([2]; 4 hr after 500 mg/kg oral gavage, pre-dose 713): 1478 µg/g
- NMN concentration ([2]; 8 hr after 500 mg/kg oral gavage, pre-dose 0.00637): 0.0250 mmol/kg
- NAM concentration ([2]; 8 hr after 500 mg/kg oral gavage, pre-dose 0.430): 0.609 mmol/kg
- NAD concentration ([2]; 8 hr after 500 mg/kg oral gavage, pre-dose 1.08): 4.92 mmol/kg
- NMN concentration ([2]; 8 hr after 500 mg/kg oral gavage, pre-dose 2.13): 8.34 µg/g
- NAM concentration ([2]; 8 hr after 500 mg/kg oral gavage, pre-dose 52.5): 74.3 µg/g
- NAD concentration ([2]; 8 hr after 500 mg/kg oral gavage, pre-dose 713): 3267 µg/g
- NMN concentration ([2]; 24 hr after 500 mg/kg oral gavage, pre-dose 0.00637): 0.00459 mmol/kg
- NAM concentration ([2]; 24 hr after 500 mg/kg oral gavage, pre-dose 0.430): 0.381 mmol/kg
- NAD concentration ([2]; 24 hr after 500 mg/kg oral gavage, pre-dose 1.08): 1.10 mmol/kg
- NMN concentration ([2]; 24 hr after 500 mg/kg oral gavage, pre-dose 2.13): 1.53 µg/g
- NAM concentration ([2]; 24 hr after 500 mg/kg oral gavage, pre-dose 52.5): 46.6 µg/g
- NAD concentration ([2]; 24 hr after 500 mg/kg oral gavage, pre-dose 713): 731 µg/g
- NAAD concentration ([2]; 24 hr after 500 mg/kg oral gavage): BDL
